Measurements reported in patent publication US12343371B2, “Method for suppressing or alleviating primary or secondary progressive multiple sclerosis (PPMS or SPMS) using a sustained release depot formulation comprising glatiramer acetate” (MAPI PHARMA LTD., priority 2017, dated 2025).

Test system: primary progressive EAE (PP-EAE) in C57BL/6 female mice
Experiment: MOG 35-55 induced primary progressive EAE (PP-EAE) in mice: clinical score, body weight, survival
Conditions: for Body weight compared with untreated control (FIG. 2): P<0.05
[1] = C57BL/6 mice, PP-EAE, GA Depot 4 mg IM Day 0, 1, Copaxone 2 mg SC Days 0-8, N = 20/group, +/- standard error
[2] = C57BL/6 mice, PP-EAE, GA Depot 4 mg IM Day 0, 1, Copaxone 2 mg SC Days 0-8, N = 20/group, +/- standard error, listed as Copaxone®

Experimental: Animals were given food and water ad-libitum throughout the experiment. […] A 21G needle was used for injections in mice. […] Measurements: Body weight was measured every two days from day 0 to day 28. EAE was assessed by clinical scoring of the mice once daily from Day 0 to Day 28 post immunization (Table 2). For analysis, dead animals received clinical score of 5 and the weight recorded at the last measurement before animal death.
The following calculations were derived from clinical score raw data: mean maximum score is the mean of the highest scores noted for each mouse in a specific group up to indicated day of analysis; mean disease duration and mean day of onset were calculated as follows: Mean Disease Duration=Sum of (day of analysis−day of disease onset for each mouse)/(number of mice per group); Mean Day of Onset=(sum of day of disease onset of each mouse)/(number of mice per group). Area under the curve (AUC) of clinical score was calculated using Microsoft Excel and represents disease burden.
Glatiramer Acetate Depot (GA Depot): GA Depot was suspended in water for injection (WFI) and immediately injected intramuscularly (IM) at the indicated dose. Dose of GA Depot are given according to amount of active ingredient (i.e. GA Depot 4 mg contains 4 mg GA).
Statistical analysis: Data was analyzed using Microsoft Excel. Each data set was analyzed using single-factor analysis of variance (ANOVA) followed by one tailed student's T-test.

Substance: glatiramer acetate [Copaxone ®]
- Survival Rate at Day 28 (C57BL/6 mice, PP-EAE, GA Depot 4 mg IM Day 0, 1, Copaxone 2 mg SC Days 0-8, N = 20/group): 90%
- AUC Clinical Score [1]: 26.83 ± 2.49
- Mean Day of Onset [1]: 12.35 ± 0.23
- Mean Disease Duration [1]: 15.65 ± 0.23
- AUC Clinical Score [2]: significantly reduced
- Mean Day of Onset [2]: significantly reduced
- Mean Disease Duration [2]: significantly reduced
- Maximum Mean Disease Score (C57BL/6 mice, PP-EAE, GA Depot 4 mg IM Day 0, 1, Copaxone 2 mg SC Days 0-8, score 0-5, N = 20/group, +/- standard error): 2.25 ± 0.22
- Body weight compared with untreated control (FIG. 2) (day 21): significantly higher
- Body weight compared with untreated control (FIG. 2) (days 10 to 17 following immunization): significantly higher
- mean clinical score compared with saline group (FIG. 1) (days 11-19 and day 20, p<0.05, GA Depot 4 mg, Copaxone 2 mg days 0-8): mean clinical score of the saline group was significantly higher
